This passage reports IC50 results from ChEMBL document CHEMBL1142372, “Design, synthesis, and structure-activity relationship studies of 4-quinolinyl- and 9-acrydinylhydrazones as potent antimalarial agents” (J Med Chem, 2008).

By IC50 is commonly meant the point on the concentration scale where inhibition reaches its midpoint. A lower IC50 goes with greater potency in that assay.

Structures are written as SMILES.

What all share (format): functional, organism-based
In test [1] the test system is Plasmodium falciparum. Briefly: Antiplasmodial activity against chloroquine-sensitive Plasmodium falciparum 3D7 by [3H]hypoxanthine incorporation.
The test system of test [2] is Plasmodium falciparum. The test is described as follows: Antiplasmodial activity against chloroquine-resistant Plasmodium falciparum W2 by [3H]hypoxanthine incorporation.
The subject of test [3] is Plasmodium falciparum. The test is described as follows: Antiplasmodial activity against chloroquine-sensitive Plasmodium falciparum D10 by [3H]hypoxanthine incorporation.
The test system of test [4] is Plasmodium falciparum. The test is described as follows: Antiplasmodial activity against chloroquine-resistant Plasmodium falciparum K1 by [3H]hypoxanthine incorporation.

For `CCN(CC)c1ccc(/C=N/Nc2c3c(nc4ccccc24)CCCC3)cc1`, the IC50 in the test with Plasmodium falciparum [1] was 1080 nM; in the test with Plasmodium falciparum [2], 1470 nM; in the test with Plasmodium falciparum [3], 986 nM.

With `C(=N\Nc1ccnc2cc3c(cc12)OCO3)/c1ccc(CN2CCCC2)cc1`, the IC50 was found to be 26.7 nM in the test with Plasmodium falciparum [1], 46.5 nM with Plasmodium falciparum [2], 58 nM in the test on Plasmodium falciparum [4] and 35.6 nM in the test on Plasmodium falciparum [3].

Turning to `CCN(CC)Cc1ccc(/C=N/Nc2ccnc3cc(Cl)ccc23)cc1`, the IC50 is 2.7 nM in the test with Plasmodium falciparum [1], 57.7 nM with Plasmodium falciparum [2], 27.2 nM in the test with Plasmodium falciparum [4] and 48.3 nM in the test with Plasmodium falciparum [3].

Turning to `CCN(CC)c1ccc(/C=N/Nc2ccnc3cc(Cl)ccc23)cc1`, the values for the half-inhibitory concentration (IC50) in the test with Plasmodium falciparum [1], in the test on Plasmodium falciparum [2] and in the test on Plasmodium falciparum [3] were 300 nM, 250 nM and 175 nM, respectively.

With `O=S(=O)(NNc1ccnc2cc(Cl)ccc12)c1cccc2ccccc12`, the IC50 in the test on Plasmodium falciparum [1] came out at 2160 nM; with Plasmodium falciparum [2] it was 2530 nM; in the test on Plasmodium falciparum [4] it was 599 nM; with Plasmodium falciparum [3], 4270 nM.

As for `CN(C)c1ccc(/C=N/Nc2ccnc3cc(Cl)ccc23)cc1`, the concentration for half-maximal inhibition (IC50) with Plasmodium falciparum [1] was found to be 308 nM; in the test with Plasmodium falciparum [2] it was 383 nM; in the test on Plasmodium falciparum [4], 1140 nM; in the test with Plasmodium falciparum [3], 325 nM.

For the compound `COc1cc2ccccc2cc1/C=N/Nc1ccnc2cc(Cl)ccc12`, the concentration for half-maximal inhibition (IC50) with Plasmodium falciparum [1] worked out at 31.8 nM; with Plasmodium falciparum [2], 169 nM; in the test on Plasmodium falciparum [4], 63.7 nM; in the test with Plasmodium falciparum [3], 145 nM.

On to `COc1ccc(/C=N/Nc2cc(C)nc3ccc(OC)cc23)cc1`, for which the IC50 with Plasmodium falciparum [1] is 31.1 nM; in the test with Plasmodium falciparum [2] it was 150 nM; in the test on Plasmodium falciparum [4], 62.3 nM; in the test with Plasmodium falciparum [3], 103 nM.

For `Clc1ccc2c(N/N=C/c3cccnc3)ccnc2c1`, the IC50 in the test on Plasmodium falciparum [2] came out at 814 nM; in the test on Plasmodium falciparum [3] it was 607 nM.

`C(=N\Nc1c2c(nc3ccccc13)CCCC2)/c1ccc2c(c1)OCO2`: the IC50 came to 923 nM in the test with Plasmodium falciparum [2] and 618 nM in the test on Plasmodium falciparum [3].

Turning to `COc1cccc2c(N/N=C/c3ccc4ccccc4n3)cc(C)nc12`, the IC50 in the test with Plasmodium falciparum [1] was 789 nM; in the test on Plasmodium falciparum [2] it was 324 nM; in the test on Plasmodium falciparum [4], 117 nM; with Plasmodium falciparum [3], 404 nM.

With `Cc1ccc(S(=O)(=O)NNc2ccnc3cc(Cl)ccc23)cc1`, the IC50 in the test with Plasmodium falciparum [1] was 3020 nM; with Plasmodium falciparum [2], 5060 nM; in the test on Plasmodium falciparum [4], 8460 nM; with Plasmodium falciparum [3] it was 5840 nM.

For the compound `Cc1cccc(/C=N/Nc2ccnc3cc(Cl)ccc23)n1`, the IC50 in the test with Plasmodium falciparum [2] is 760 nM; in the test with Plasmodium falciparum [3] it was over 3000 nM.

On to `COc1ccc(/C=N/Nc2ccnc3c(OC)cccc23)cc1`, for which the IC50 amounted to 326 nM with Plasmodium falciparum [1], 903 nM in the test on Plasmodium falciparum [2], 769 nM with Plasmodium falciparum [4] and 715 nM with Plasmodium falciparum [3].

For the compound `Clc1ccc2c(N/N=C/c3ccc(N4CCCC4)cc3)ccnc2c1`, the IC50 in the test with Plasmodium falciparum [1] was determined as 855 nM; with Plasmodium falciparum [2], 190 nM; in the test with Plasmodium falciparum [4], 427 nM; in the test on Plasmodium falciparum [3] it was 189 nM.

With `Cc1cc(N/N=C/c2ccc3c(c2)OCO3)c2ccc(Cl)cc2n1`, the figures for the concentration for half-maximal inhibition (IC50) with Plasmodium falciparum [2] and in the test on Plasmodium falciparum [3] were 281 nM and 122 nM, respectively.

`COc1cccc(/C=N/Nc2cc(C)nc3cc4c(cc23)OCO4)c1`: the IC50 with Plasmodium falciparum [1] turned out to be 4980 nM; in the test with Plasmodium falciparum [2], 229 nM; in the test with Plasmodium falciparum [3], 197 nM.

As to `CCOc1ccc2c(N/N=C/c3ccc(OC)cc3)cc(C)nc2c1`, the IC50 in the test with Plasmodium falciparum [1] is 805 nM; in the test with Plasmodium falciparum [2], 232 nM; in the test on Plasmodium falciparum [4], 537 nM; with Plasmodium falciparum [3] it was 212 nM.

In the case of `COc1ccc2c(N/N=C/c3ccc4ccccc4n3)ccnc2c1`, the IC50 turned out to be 140 nM in the test with Plasmodium falciparum [2], 213 nM with Plasmodium falciparum [4] and 108 nM in the test with Plasmodium falciparum [3].

Consider `Clc1ccc2c(N/N=C/c3ccncc3)ccnc2c1`, for which the IC50 in the test on Plasmodium falciparum [2] was determined as 627 nM; in the test with Plasmodium falciparum [3], 570 nM.

As for `COc1ccc2nccc(N/N=C/c3ccc4c(c3)OCO4)c2c1`, the concentration for half-maximal inhibition (IC50) in the test on Plasmodium falciparum [2] came out at 197 nM; with Plasmodium falciparum [3] it was 132 nM.

As to `COc1ccc(/C=N/Nc2c3c(nc4ccccc24)CCCC3)cc1`, the IC50 with Plasmodium falciparum [2] was 2360 nM; in the test on Plasmodium falciparum [3], 942 nM.

In the case of `Cc1cccc(/C=N/Nc2cc(C)nc3cc(Cl)ccc23)n1`, the IC50 in the test with Plasmodium falciparum [2] turned out to be 1310 nM; with Plasmodium falciparum [3], 1160 nM.
